# Assays:
# H929 cells = experiment: Cell viability assay (Cell TiterGlo); assay type: cell-based; conditions: Homo sapiens, NCI-H929, 24 hours at 37° C., Cell TiterGlo luminescence
# Protocol: The cell viability assay was performed using H929 cells. Cells were seeded in 96-well plates at 10,000 cells/well and, after overnight incubation, treated with compounds in a dose response of 3-fold dilutions from 10 μM to 0.005 μM ([…], 0.1% final DMSO concentration). After 24 hours at 37° C., cell viability was measured using Cell TiterGlo reagent (Promega) with a luminescence reader.
# CDK9/Cyclin T1 = CDK9/Cyclin T1 (Homo sapiens (Human), UniProt P50750); experiment: CDK9 enzyme assay (LANCE ULight TR-FRET kinase assay); assay type: biochemical; conditions: 1000 μM ATP, 100 nM ULight MBP, kinase reaction 1 hour
# Chain of CDK9/Cyclin T1 (P50750 whole entry): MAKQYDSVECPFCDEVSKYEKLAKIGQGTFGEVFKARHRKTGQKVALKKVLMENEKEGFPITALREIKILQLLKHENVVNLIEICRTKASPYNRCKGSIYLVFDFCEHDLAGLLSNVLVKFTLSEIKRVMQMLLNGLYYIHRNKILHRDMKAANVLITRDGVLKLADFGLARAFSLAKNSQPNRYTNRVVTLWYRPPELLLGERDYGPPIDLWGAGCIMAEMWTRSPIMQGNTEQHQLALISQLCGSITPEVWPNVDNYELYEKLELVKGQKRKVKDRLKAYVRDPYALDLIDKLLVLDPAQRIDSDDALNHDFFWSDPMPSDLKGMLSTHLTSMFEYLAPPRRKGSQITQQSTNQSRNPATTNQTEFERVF
# Chain of CDK9/Cyclin T1 (O60563 whole entry partner): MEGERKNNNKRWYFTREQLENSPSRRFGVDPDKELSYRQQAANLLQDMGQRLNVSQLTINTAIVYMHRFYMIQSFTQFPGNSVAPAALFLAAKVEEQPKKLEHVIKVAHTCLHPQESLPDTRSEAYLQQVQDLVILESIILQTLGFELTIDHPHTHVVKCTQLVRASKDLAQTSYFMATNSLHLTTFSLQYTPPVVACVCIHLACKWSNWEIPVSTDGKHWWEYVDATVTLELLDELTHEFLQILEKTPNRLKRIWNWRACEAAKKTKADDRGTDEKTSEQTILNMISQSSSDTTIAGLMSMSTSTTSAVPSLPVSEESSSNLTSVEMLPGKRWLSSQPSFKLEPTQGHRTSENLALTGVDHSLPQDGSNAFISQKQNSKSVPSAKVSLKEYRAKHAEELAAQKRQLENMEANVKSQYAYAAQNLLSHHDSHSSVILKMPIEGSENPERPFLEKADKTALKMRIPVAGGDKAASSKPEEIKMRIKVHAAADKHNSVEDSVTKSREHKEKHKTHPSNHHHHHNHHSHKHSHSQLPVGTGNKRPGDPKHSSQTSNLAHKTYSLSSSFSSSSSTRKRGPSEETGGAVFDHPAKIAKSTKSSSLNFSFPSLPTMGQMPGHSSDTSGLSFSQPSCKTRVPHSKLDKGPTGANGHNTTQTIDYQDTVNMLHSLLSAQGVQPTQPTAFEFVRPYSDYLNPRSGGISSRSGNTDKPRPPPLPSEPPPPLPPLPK
# Protocol: CDK9 enzyme activities were measured using LANCE ULight TR-FRET kinase assay reagents (PerkinElmer, Waltham, Mass.). Compounds were diluted in 100% DMSO then diluted with 1:10 in serine/threonine kinase assay buffer containing 20 mM HEPES, 10 mM MgCl2, […], and 0.0075% Triton X-100. Equal volume of the compound dilutions was added to a final reaction mixture containing LANCE detection buffer (PerkinElmer CR97-100), 100 nM ULight MBP (PerkinElmer TRF0109M), 1000 μM ATP, and CDK9/Cyclin T1 (Carna Biosciences 04-110). The kinase reaction was carried out for 1 hour before addition of stopping buffer to a final of 20 mM EDTA and 0.5 nM of LANCE Ultra Europium anti-phospho-MBP antibody (PerkinElmer TRF0201M) in LANCE detection buffer. The reaction was incubated for 1 hour and the signal was read in Envision in TR-FRET mode (excitation at 320 nm and emission at 615/665 nm).
SMILES,IC50 (H929 cells),IC50 (CDK9/Cyclin T1)
"CN1Cc2c(C3=CCC(N[C@@H](Cc4ccc(O)cc4)C(=O)O)CC3)[nH]c3nccc(c23)-c2cc(F)ccc21 (stereo partly drawn) [Example 40, N-[4-(10-fluoro-7-methyl-6,7-dihydro-4H-3,4,7-triazadibenzo[cd,f]azulen-5-yl)cyclohex-3-en-1-yl]-L-tyrosine]",320 nM,81 nM
"CN1Cc2c(C3=CCC(C(=O)O)CC3)[nH]c3nccc(c23)-c2cc(F)ccc21 (stereo not drawn) [Example 41, 4-(10-fluoro-7-methyl-6,7-dihydro-4H-3,4,7-triazadibenzo[cd,f]azulen-5-yl)cyclohex-3-ene-1-carboxylic acid]",1100 nM,150 nM
"CN1Cc2c(C3=CCN(CC(=O)N4CC[C@H](O)C4)CC3)[nH]c3nccc(c23)-c2cc(F)ccc21 [Example 42, 2-[4-(10-fluoro-7-methyl-6,7-dihydro-4H-3,4,7-triazadibenzo[cd,f]azulen-5-yl)-3,6-dihydropyridin-1(2H)-yl]-1-[(3S)-3-hydroxypyrrolidin-1-yl]ethanone]",79 nM,48 nM
"CN1Cc2c(-c3ccc(S(C)(=O)=O)cc3)[nH]c3nccc(c23)-c2cc(F)ccc21 [Example 43, 10-fluoro-7-methyl-5-[4-(methylsulfonyl)phenyl]-6,7-dihydro-4H-3,4,7-triazadibenzo[cd,f]azulene]",230 nM,66 nM
"CN1Cc2c(-c3ccncc3)[nH]c3nccc(c23)-c2cc(F)ccc21 [Example 44, 10-fluoro-7-methyl-5-(pyridin-4-yl)-6,7-dihydro-4H-3,4,7-triazadibenzo[cd,f]azulene]",490 nM,130 nM
"CN1Cc2c(-c3ccc(S(C)(=O)=O)nc3)[nH]c3nccc(c23)-c2cc(F)ccc21 [Example 45, 10-fluoro-7-methyl-5-[6-(methylsulfonyl)pyridin-3-yl]-6,7-dihydro-4H-3,4,7-triazadibenzo[cd,f]azulene]",830 nM,110 nM
"CN1Cc2c(C3=CCNCC3)[nH]c3ncc(F)c(c23)-c2cc(F)ccc21 [Example 48, 1,10-difluoro-7-methyl-5-(1,2,3,6-tetrahydropyridin-4-yl)-6,7-dihydro-4H-3,4,7-triazadibenzo[cd,f]azulene]",20 nM,27 nM

# The next lines start with the values.
IC50 (H929 cells),IC50 (CDK9/Cyclin T1),SMILES
> 10000 nM,3300 nM,"CN1Cc2c(-c3cnc(N)nc3)[nH]c3nccc(c23)-c2cc(F)ccc21 [Example 46, 5-(10-fluoro-7-methyl-6,7-dihydro-4H-3,4,7-triazadibenzo[cd,f]azulen-5-yl)pyrimidin-2-amine]"
9800 nM,150 nM,"CN1Cc2c(-c3ccc(C(=O)O)cc3)[nH]c3nccc(c23)-c2cc(F)ccc21 [Example 47, 4-(10-fluoro-7-methyl-6,7-dihydro-4H-3,4,7-triazadibenzo[cd,f]azulen-5-yl)benzoic acid]"
780 nM,780 nM,"CN1Cc2c(C3=CCN(C(=O)OC(C)(C)C)CC3)[nH]c3ncc(F)c(c23)-c2cc(F)ccc21 [Example 49, tert-butyl 4-(1,10-difluoro-7-methyl-6,7-dihydro-4H-3,4,7-triazadibenzo[cd,f]azulen-5-yl)-3,6-dihydropyridine-1(2H)-carboxylate]"
960 nM,120 nM,"CN(C)C(=O)C1CC=C(c2[nH]c3nccc4c3c2CN(C)c2ccc(F)cc2-4)CC1 (stereo not drawn) [Example 50, 4-(10-fluoro-7-methyl-6,7-dihydro-4H-3,4,7-triazadibenzo[cd,f]azulen-5-yl)-N,N-dimethylcyclohex-3-ene-1-carboxamide]"
470 nM,110 nM,"CN1Cc2c(C3=CCC(C(=O)N4CC(O)C4)CC3)[nH]c3nccc(c23)-c2cc(F)ccc21 (stereo not drawn) [Example 51, [4-(10-fluoro-7-methyl-6,7-dihydro-4H-3,4,7-triazadibenzo[cd,f]azulen-5-yl)cyclohex-3-en-1-yl](3-hydroxyazetidin-1-yl)methanone]"

# — US9328112B2, “Tetracyclic CDK9 kinase inhibitors” (AbbVie Inc., priority 2014, dated 2016)
